Literature values as cited in patent US20260325503A1, “LONG-ACTING FORMULATIONS” (JANSSEN PHARMACEUTICA NV, priority 2022, published 2026).

Experiments:
[1] = tested on: mycobacterial ATP synthase; settings: mycobacterial ATP synthase versus eukaryotic mitochondrial ATP synthase

COc1nc2ccc(Br)cc2cc1[C@@H](c1ccccc1)[C@@](O)(CCN(C)C)c1cccc2ccccc12 [bedaquiline]
selectivity index [1]: more than 20000 | minimal dose killing 99% of bacilli (M. tuberculosis): 30 mg/kg/wk | minimal dose killing 99% of bacilli (Mycobacterium leprae; M. lepra): < 5.0 mg/kg/wk | Bactericidal activity (in words) (Mycobacterium leprae; mycobacterium leprae, mice): bactericidal
